Test system: dermal papilla (DP) cells and outer root sheath (ORS) cells
Experiment: "Two-Cell Assemblage" Assay, hair growth-promoting efficacy
Format: cell-based
Details: 10 ppm, 20 ppm; cultured for 5 days; vs. control
Experimental: The hair growth-promoting efficacy of 3,4,5-trimethoxycinnamate thymol ester (Melasolv) according to the concentration (10 ppm, 20 ppm) was evaluated using “Two-Cell Assemblage” Assay (“Two-Cell Assemblage” Assay: A Simple in vitro Method for Screening Hair Growth-Promoting Compounds) (Front Cell Dev Biol. 2020 Nov. 24; 8:581528).
The “Two-Cell Assemblage” Assay is an evaluation method that mimics the hair growth of actual hair follicles by co-culturing dermal papilla (DP) cells and outer root sheath (ORS) cells that constitute the hair follicle. That is, the length growth of the “Two-Cell Assemblage” structure has a mechanism similar to that of the actual hair follicle growth, and is being used as a new method of evaluating hair growth-promoting efficacy.
5,000 hair follicle dermal papilla cells were seeded on an ultra-low attachment 96-well plate to form 3D spheroids. After 24 hours, 5,000 outer root sheath cells (Kyungpook National University Industry-Academic Cooperation Foundation) were added together with the test substance to create a “Two-Cell assemblage” structure and cultured for 5 days under 37° C., 5% CO2 conditions. After culturing for 5 days, the length growth was measured using a microscope (OLYMPUS, SZX16) and shown in the Figure (* p<0.05, ** p<0.01, *** p<0.001 vs. control).

COc1cc(/C=C/C(=O)Oc2cc(C)ccc2C(C)C)cc(OC)c1OC [Melasolv, (5-methyl-2-propan-2-ylphenyl) (E)-3-(3,4,5-trimethoxyphenyl) prop-2-enoate]
length growth of the "Two-Cell Assemblage" structure (hair growth efficacy): significant level of length growth-promoting efficacy
